Like-named read-outs stand apart in the source and are kept apart here.

The source of these data is patent US20220073532A1, “INHIBITORS OF CGAS ACTIVITY AS THERAPEUTIC AGENTS” (BELLBROOK LABS, LLC, priority 2019, published 2022).

This assay deals with cGAS (Homo sapiens, UniProt Q8N884). The assay is described as follows: cGAS enzymatic assay (FP/TR-FRET detection of cGAMP). Format: biochemical. Set-up: The cGAS assay was used to screen 100,000 compounds with full-length human cGAS; 6xHis; made in house. The settings on record: cGAS (30 nM). On the procedure: Some exemplary compounds of the disclosure were tested for inhibition of cGAS (30 nM). The results are provided in Table 1 where “A” indicates an IC50 of less than 100 nM, “B” indicates an IC50 of greater than 100 nM and less than 500 nM, “C” indicates an IC50 of greater than 500 nM and less than 1 μM, “D” indicates an IC50 of greater than 1 μM and less than 10 μM, and “E” indicates an IC50 of greater than 10 μM.
A homogenous cGAS enzymatic assay was developed with fluorescence polarization (FP) and time-resolved Forster resonance energy transfer (TR-FRET) readouts (FIG. 2A-2D). The cGAS assay was used to screen 100,000 compounds with full-length human cGAS (FIG. 2E), resulting in the identification of the novel chemotype of the disclosure, two of which are further developed in a structure-driven hit-to-lead study (Table 3, below). The assay performance was robust, as indicated by respective Z and Z′ values of 0.59 and 0.63 in the screen; compounds with polarization values greater than three SDs from the mean were considered hits; a scatterplot from 10 plates (3,200 compounds) is shown in FIG. 2D.
Biochemical and biophysical analysis: Potency and MOA studies, including Mn^2+ sensitivity, are performed using the cGAS enzymatic assay. Dose response experiments are used to determine IC50 values under basal conditions (5 mM MgCl2, 100 μM ATP/GTP), and with the addition of physiological levels of Mn (0.2 mM) using human and mouse cGAS. Ligand optimization is driven by potency with the human enzyme; potency with mouse cGAS informs selection of an appropriate disease model for efficacy studies. Competition with ATP and GTP is assessed by comparing basal IC50 values to those in the presence of saturating ATP or GTP, and subsequently confirmed by measuring velocity vs. substrate at varying ATP or GTP levels. Inhibitor residence times (1/koff) are used as a key parameter for prioritizing compounds and driving SAR, because a longer residence time often results from an allosteric mechanism, and can also correlate with improved cellular activity. The cGAS enzymatic assay is used with the jump dilution method to measure residence times (inhibitor dissociation rates), as described for kinases using the very similar ADP assay. Biophysical methods, including SPR and TSA, are used as orthologous methods for residence time measurements and kd estimates.
(Time-resolved FRET reads energy transfer from a long-lived donor to a nearby acceptor.)

Where [1] appears, read: with Mn^2+, read-out: Inhibition cGAS + Mn^2+.

cGAS, sequence (Q8N884 whole entry): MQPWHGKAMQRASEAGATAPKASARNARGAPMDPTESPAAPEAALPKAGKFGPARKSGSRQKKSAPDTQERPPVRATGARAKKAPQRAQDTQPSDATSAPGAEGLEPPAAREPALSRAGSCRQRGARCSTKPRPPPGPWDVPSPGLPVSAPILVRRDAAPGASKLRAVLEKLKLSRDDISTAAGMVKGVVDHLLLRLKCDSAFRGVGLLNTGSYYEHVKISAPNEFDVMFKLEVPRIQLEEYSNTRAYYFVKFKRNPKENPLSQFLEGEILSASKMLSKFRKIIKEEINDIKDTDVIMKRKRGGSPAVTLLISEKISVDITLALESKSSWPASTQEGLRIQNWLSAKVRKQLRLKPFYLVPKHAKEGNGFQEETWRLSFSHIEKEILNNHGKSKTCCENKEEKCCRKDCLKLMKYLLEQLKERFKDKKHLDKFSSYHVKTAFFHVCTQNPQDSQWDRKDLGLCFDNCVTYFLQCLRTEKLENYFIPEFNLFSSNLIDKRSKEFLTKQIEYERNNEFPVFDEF

Turning to `Cc1nc(N2C[C@@H](NC(=O)Cc3cccnc3)C[C@H]2C(=O)O)c2oc3ccccc3c2n1` [Compound 34, (2S,4S)-1-(2-methylbenzofuro[3,2-d]pyrimidin-4-yl)-4-(2-(pyridin-3-yl)acetamido)pyrrolidine-2-carboxylic acid], the IC50 (read-out: Inhibition cGAS) fell in the range of 500 to 1000 nM.

On to `CNC(=O)C[C@H]1C[C@@H](C(=O)O)N(c2nc(C)nc3c2oc2ccccc23)C1` [Compound 35, (2S,4R)-4-(2-(methylamino)-2-oxoethyl)-1-(2-methylbenzofuro[3,2-d]pyrimidin-4-yl)pyrrolidine-2-carboxylic acid], for which, under “read-out: Inhibition cGAS”, the IC50 fell in the range of 500 to 1000 nM.

Turning to `Cc1nc(N2C[C@@H](NC(=O)Cc3ncc[nH]3)C[C@H]2C(=O)O)c2oc3ccccc3c2n1` [Compound 36, (2S,4S)-4-(2-(1H-imidazol-2-yl)acetamido)-1-(2-methylbenzofuro[3,2-d]pyrimidin-4-yl)pyrrolidine-2-carboxylic acid], the IC50 (read-out: Inhibition cGAS) lay within 500 to 1000 nM.

Take `Cc1nc(N2C[C@@H](NC3CCCNC3)C[C@H]2C(=O)O)c2oc3ccccc3c2n1` (stereo partly drawn) [Compound 37, (2S,4S)-1-(2-methylbenzofuro[3,2-d]pyrimidin-4-yl)-4-(piperidin-3-ylamino)pyrrolidine-2-carboxylic acid]: the IC50 (read-out: Inhibition cGAS) fell in the range of 500 to 1000 nM.

With `Cc1nc(N2C[C@@H](Nc3cccnc3)C[C@H]2C(=O)O)c2oc3ccccc3c2n1` [Compound 39, (2S,4S)-1-(2-methylbenzofuro[3,2-d]pyrimidin-4-yl)-4-(pyridin-3-ylamino)pyrrolidine-2-carboxylic acid], the “Inhibition cGAS” value is reported as “B, D”.

As for `Cc1nc(N2C[C@@H](NC(=O)Cc3c[nH]cn3)C[C@H]2C(=O)O)c2oc3ccccc3c2n1` [Compound 40, (2S,4S)-4-(2-(1H-imidazol-4-yl)acetamido)-1-(2-methylbenzofuro[3,2-d]pyrimidin-4-yl)pyrrolidine-2-carboxylic acid], the IC50 (read-out: Inhibition cGAS) lay within 500 to 1000 nM.

Take `Cc1nc(N2C[C@@H](Nc3n[nH]cc3-c3ccccc3)C[C@H]2C(=O)O)c2oc3ccccc3c2n1` [Compound 41]: for the setting “read-out: Inhibition cGAS”, the IC50 was 500 to 1000 nM.

With `Cc1cncc(CC(=O)N[C@H]2C[C@@H](C(=O)O)N(c3nc(C)nc4c3oc3ccccc34)C2)c1` [Compound 42, (2S,4S)-1-(2-methylbenzofuro[3,2-d]pyrimidin-4-yl)-4-(2-(5-methylpyridin-3-yl)acetamido)pyrrolidine-2-carboxylic acid], where the note is “read-out: Inhibition cGAS”, the IC50 fell in the range of 500 to 1000 nM.

For the molecule `Cc1nc(N2C[C@@H](NC(N)=O)C[C@H]2C(=O)O)c2oc3ccccc3c2n1` [Compound 43, (2S,4S)-1-(2-methylbenzofuro[3,2-d]pyrimidin-4-yl)-4-ureidopyrrolidine-2-carboxylic acid], where the note is “read-out: Inhibition cGAS”, the IC50 is 1000 to 10000 nM.

For `Cc1nc(N2C[C@@H](NC(=O)[C@H]3CN3)C[C@H]2C(=O)O)c2oc3ccccc3c2n1` [Compound 44, (2S,4S)-4-((R)-aziridine-2-carboxamido)-1-(2-methylbenzofuro[3,2-d]pyrimidin-4-yl)pyrrolidine-2-carboxylic acid], under “read-out: Inhibition cGAS”, the IC50 was 1000 to 10000 nM.

With `Cc1nc(N2C[C@@H](CC(N)=O)C[C@H]2C(=O)O)c2oc3ccccc3c2n1` [Compound 45, (2S,4R)-4-(2-amino-2-oxoethyl)-1-(2-methylbenzofuro[3,2-d]pyrimidin-4-yl)pyrrolidine-2-carboxylic acid], the IC50 (read-out: Inhibition cGAS) was 500 to 1000 nM.

For the molecule `Cc1nc(N2C[C@@H](CC(=O)Nc3ccccn3)C[C@H]2C(=O)O)c2oc3ccccc3c2n1` [Compound 46, (2S,4R)-1-(2-methylbenzofuro[3,2-d]pyrimidin-4-yl)-4-(2-oxo-2-(pyridin-2-ylamino)ethyl)pyrrolidine-2-carboxylic acid], the IC50 (read-out: Inhibition cGAS) lay within 1000 to 10000 nM.

`Cc1nc(N2C[C@@H](NC(=O)c3ncc[nH]3)C[C@H]2C(=O)O)c2oc3ccccc3c2n1` [Compound 47, (2S,4S)-4-(1H-imidazole-2-carboxamido)-1-(2-methylbenzofuro[3,2-d]pyrimidin-4-yl)pyrrolidine-2-carboxylic acid]: the IC50 (read-out: Inhibition cGAS) fell in the range of 1000 to 10000 nM.

Turning to `Cc1nc(N2C[C@@H](NC(=O)Cc3cccnc3N)C[C@H]2C(=O)O)c2oc3ccccc3c2n1` [Compound 49, (2S,4S)-4-(2-(2-aminopyridin-3-yl)acetamido)-1-(2-methylbenzofuro[3,2-d]pyrimidin-4-yl)pyrrolidine-2-carboxylic acid], the IC50 (read-out: Inhibition cGAS) was in the range of 500 to 1000 nM.

Regarding `Cc1nc(N2C[C@@H](NC(=O)Cc3ccnc(C(N)=O)c3)C[C@H]2C(=O)O)c2oc3ccccc3c2n1` [Compound 50, (2S,4S)-4-(2-(2-carbamoylpyridin-4-yl)acetamido)-1-(2-methylbenzofuro[3,2-d]pyrimidin-4-yl)pyrrolidine-2-carboxylic acid], the IC50 (read-out: Inhibition cGAS) lay within 500 to 1000 nM.

Regarding `Cc1nc(N2C[C@@H](CC(=O)NC3CCCC3)C[C@H]2C(=O)O)c2oc3ccccc3c2n1` [Compound 51, (2S,4R)-4-(2-(cyclopentylamino)-2-oxoethyl)-1-(2-methylbenzofuro[3,2-d]pyrimidin-4-yl)pyrrolidine-2-carboxylic acid], the IC50 reads like this: under setting [1], 1000 to 10000 nM; (read-out: Inhibition cGAS) 100 to 500 nM.

`Cc1nc(N2C[C@@H](CC(=O)Nc3ccccc3)C[C@H]2C(=O)O)c2oc3ccccc3c2n1` [Compound 52, (2S,4R)-1-(2-methylbenzofuro[3,2-d]pyrimidin-4-yl)-4-(2-oxo-2-(phenylamino)ethyl)pyrrolidine-2-carboxylic acid]: the IC50 was in the range of 1000 to 10000 nM under setting [1] and 100 to 500 nM (read-out: Inhibition cGAS).

Regarding `Cc1nc(N2[C@H](C(=O)O)C[C@@H]3C[C@@H]32)c2oc3ccccc3c2n1` [Compound 54, (1S,3S,5S)-2-(2-methylbenzofuro[3,2-d]pyrimidin-4-yl)-2-azabicyclo[3.1.0]hexane-3-carboxylic acid], the IC50 under setting [1] is 1000 to 10000 nM and the IC50 (read-out: Inhibition cGAS) fell in the range of 1000 to 10000 nM.

In the case of `Cc1nc(N2C[C@@H](Nc3n[nH]c4ccccc34)C[C@H]2C(=O)O)c2oc3ccccc3c2n1` [Compound 55, (2S,4S)-4-((1H-indazol-3-yl)amino)-1-(2-methylbenzofuro[3,2-d]pyrimidin-4-yl)pyrrolidine-2-carboxylic acid], the IC50 reads like this: under setting [1], 1000 to 10000 nM; (read-out: Inhibition cGAS) 500 to 1000 nM.

For the molecule `Cc1nc(N2C[C@@H](NC(=O)C(C)(C)c3cn[nH]c3)C[C@H]2C(=O)O)c2oc3cc(F)ccc3c2n1` [Compound 57, (2S,4S)-1-(7-fluoro-2-methylbenzofuro[3,2-d]pyrimidin-4-yl)-4-(2-methyl-2-(1H-pyrazol-4-yl)propanamido)pyrrolidine-2-carboxylic acid], the IC50 lay within 1000 to 10000 nM under setting [1] and 100 to 500 nM (read-out: Inhibition cGAS).

Turning to `CC(C)(C(=O)N[C@H]1C[C@@H](C(=O)O)N(c2nc(C(F)(F)F)nc3c2oc2ccccc23)C1)c1cn[nH]c1` [Compound 58, (2S,4S)-4-(2-methyl-2-(1H-pyrazol-4-yl)propanamido)-1-(2-(trifluoromethyl)benzofuro[3,2-d]pyrimidin-4-yl)pyrrolidine-2-carboxylic acid], the IC50 was in the range of 1000 to 10000 nM under setting [1] and 500 to 1000 nM (read-out: Inhibition cGAS).

Regarding `Cc1nc(N2C[C@@H](Nc3n[nH]cc3C(C)C)C[C@H]2C(=O)O)c2oc3ccccc3c2n1` [Compound 59, (2S,4S)-4-((4-isopropyl-1H-pyrazol-3-yl)amino)-1-(2-methylbenzofuro[3,2-d]pyrimidin-4-yl)pyrrolidine-2-carboxylic acid], the IC50 reads like this: under setting [1], 1000 to 10000 nM; (read-out: Inhibition cGAS) 100 to 500 nM.

As to `Cc1nc(N2C[C@@H](N(C)C(=O)Cc3ccncc3)C[C@H]2C(=O)O)c2oc3ccccc3c2n1` [Compound 60, (2S,4S)-4-(N-methyl-2-(pyridin-4-yl)acetamido)-1-(2-methylbenzofuro[3,2-d]pyrimidin-4-yl)pyrrolidine-2-carboxylic acid], the IC50 (read-out: Inhibition cGAS) lay within 500 to 1000 nM.

On to `Cc1nc(N2C[C@@H](NC(=O)C(C)(C)c3ccnc(C(F)(F)F)c3)C[C@H]2C(=O)O)c2oc3ccccc3c2n1` [Compound 61, (2S,4S)-4-(2-methyl-2-(2-(trifluoromethyl)pyridin-4-yl)propanamido)-1-(2-methylbenzofuro[3,2-d]pyrimidin-4-yl)pyrrolidine-2-carboxylic acid], for which the IC50 was 1000 to 10000 nM under setting [1] and 500 to 1000 nM (read-out: Inhibition cGAS).

Take `Cc1nc(N2C[C@@H](NC(=O)C3(c4ccncc4)CC3)C[C@H]2C(=O)O)c2oc3ccccc3c2n1` [Compound 62, (2S,4S)-1-(2-methylbenzofuro[3,2-d]pyrimidin-4-yl)-4-(1-(pyridin-4-yl)cyclopropane-1-carboxamido)pyrrolidine-2-carboxylic acid]: the IC50 by setting is: under setting [1], 1000 to 10000 nM; (read-out: Inhibition cGAS) 500 to 1000 nM.
